Laboratory results reported in US6445486B1, “Electroactive materials and beneficial agents having a solubilizing moiety” (Gentex Corporation, priority 1999, dated 2002).
Values after ≈ are worked out from the molar mass of the structure shown.

experiment: physchem; settings: organic solvent or mixture, thermodynamic from solid

Molecule | solubility
C[N+]1(CCN2c3ccccc3N(c3ccccc3)c3ccccc32)CCCCC1.F[P-](F)(F)(F)(F)F [1-Methyl-1-[2-(10-phenyl-10H-phenazin-5-yl)-ethyl]-piperidinium hexafluorophosphate] | 500 mM

experiment: Solubility at saturation in the solvent of interest, calculated from UV-VIS spectra of saturated solutions; settings: propylene carbonate, organic solvent or mixture, thermodynamic from solid

solubility | Molecule
12 mM (≈ 4250 µg/mL) | CCn1c(=NN=c2sc3ccccc3n2CC)sc2ccccc21 [N,N′-Bis-(3-ethyl-3H-benzothiazol-2-ylidene)-hydrazine, reference compound]
110 mM (≈ 23100 µg/mL) | CN1c2ccccc2N(C)c2ccccc21 [5,10-Dihydro-5,10-dimethylphenazine, reference compound]
5 mM (≈ 1850 µg/mL) | c1ccc(N2c3ccccc3N(CCN3CCCCC3)c3ccccc32)cc1 [5-Phenyl-10-(2-piperidin-1-yl-ethyl)-5,10-dihydrophenazine, reference compound]
55 mM (≈ 13100 µg/mL) | Cc1ccc2c(c1)N(C)c1ccc(C)cc1N2C [2,5,7,10-Tetramethyl-5,10-dihydrophenazine, reference compound]

Molecule | solubility
CC[N+](CC)(CC)CCCCn1c(=NN=c2sc3ccccc3n2C)sc2ccccc21.F[B-](F)(F)F [triethyl-(4-{2-[(3-methyl-3H-benzothiazol-2-ylidene)-hydrazono]-benzothiazol-3-yl}-butyl)-ammonium tetrafluoroborate] | 47 mM

same assay, conditions: saturated solution in propylene carbonate; ambient temperature

Molecule | Solubility in propylene carbonate
F[B-](F)(F)F.F[B-](F)(F)F.N#Cc1ccc(-[n+]2ccc(-c3cc[n+](CCC[c-]4cccc4)cc3)cc2)cc1.[Fe+2].c1cc[cH-]c1 [Ferrocenepropyl-p-cyanophenylviologen tetrafluoroborate] | 276.0 mM
CC[N+](CC)(CC)CCN1c2ccccc2N(CC[N+](CC)(CC)CC)c2ccccc21.F[B-](F)(F)F.F[B-](F)(F)F [5,10-Bis-2-(triethylammonium)ethylphenazine [BF4]2] | 200 mM
CC[N+](CC)(CC)CCN1c2ccc(C)cc2N(CC[N+](CC)(CC)CC)c2ccc(C)cc21.F[B-](F)(F)F.F[B-](F)(F)F [2,7-Dimethyl-5,10-bis-2-(triethylammonium)ethylphenazine [BF4]2] | 250 mM
1-Triethylammonium-6-(tetra-t-butylferrocenyl)hexane BF4 | 514.4 mM
